Consider one molecule from patent US20260294770A1, “FORMULATIONS OF NARINGENIN” (DEBUT BIOTECHNOLOGY, INC., priority 2023, published 2026).

One data set concerns CSF2. Kind of data set: Downregulation of gene expression and/or activity, 1% naringenin: CSF2. An excerpt:
(§1) In certain embodiments, administration of a composition comprising naringenin leads to up-regulation of LCE5A, KRT77, ALOXE3, KRT1, HPGD, MUCL1, CASP14, WFDC12, KRT10, DNASE1L2, IL37, SERPINB12, HAL, UPK1A, CALML5, LCE2B, and/or MIR205. In certain embodiments, administration of a composition comprising naringenin leads to down-regulation of CCL11, CSF2, IL23A, IL11, BMP6, IL13RA2, C2CD4A, NR4A2, C2CD4B, FGF2, FARP4, GDF15, THBS1, HSPA1A, PTGS2, and/or DKK1. Tables 10 and 11 provide data for upregulation and downregulation respectively of certain genes after administration of compositions comprising 1% naringenin.
Granulocyte-macrophage colony-stimulating factor (CSF2) plays a role in inflammation and arthritis. In certain embodiments of the invention, downregulation of CSF2 leads to an anti-inflammatory activity and/or anti-arthritic activity. In certain embodiments, the administration of composition comprising naringenin results in at least about 10 to about 20-fold downregulation of expression and/or activity of CSF2. In certain embodiments, the administration of composition comprising naringenin results in at least about fifteen (15) fold downregulation of expression and/or activity of CSF2.

For the next data set, the system named is HPGD. The data set is described as follows: Upregulation of gene expression and/or activity, 1% naringenin: HPGD.
Description: as §1
Hydroxyprostaglandin dehydrogenase (HPGD) has an anti-inflammatory function. In particular, it is involved in degradation of molecules that lead to inflammatory signaling. For example, HPGD is involved in degradation of prostaglandin, which is involved in inflammatory signaling pathway. In certain embodiments, upregulation of expression and/or activity of HPGD leads to an anti-inflammatory effect. In certain embodiments, upregulation of HPGD leads to increase in degradation of signaling molecules that are involved in inflammation. Thus, the upregulation of HPGD leads to reduced inflammation. In certain embodiments, the administration of composition comprising naringenin results in at least about 5 to about 20-fold upregulation of expression and/or activity of HPGD. […]

A further data set deals with superoxide dismutase. The settings on record: consumed orally; cited from earlier work.
For a further data set, the system named is IL37. The data set is described as follows: Upregulation of gene expression and/or activity, 1% naringenin: IL37.
Description: as §1

A further data set has as its system KRT1. The data set is described as follows: Upregulation of gene expression and/or activity, 1% naringenin: KRT1.
Description: as §1
Keratin 1 (KRT1) plays a role in maintaining the skin strength and resiliency. Keratin 1 is produced in keratinocytes in the outer layer of the skin (the epidermis), including the skin on the palms of the hands and soles of the feet. The keratin 1 protein partners with another keratin protein, either keratin 9 or keratin 10, to form molecules called keratin intermediate filaments. These filaments assemble into strong networks that provide strength and resiliency to the skin and protect it from being damaged by friction and other everyday physical stresses. In certain embodiments, the administration of composition comprising naringenin results in upregulation of KRT1, which has a role in enhancing the strength and resiliency of the skin. […]

The subject of a further data set is LCE5A. The data set is described as follows: Upregulation of gene expression and/or activity, 1% naringenin: LCE5A.
Description: as §1
Late cornified envelope protein 5A (LCE5A) is involved in formation of outer skin protective barrier. LCE5A may also be involved in keratinization. In certain embodiments, upregulation of expression and/or activity of LCE5A results in improved formation of the outer skin protective barrier. Thus, administration of compositions comprising naringenin, which leads to upregulation of LCE5A, results in increased skin barrier strength. In certain embodiments, the administration of composition comprising naringenin results in at least about 20 to about 50-fold upregulation of expression and/or activity of LCE5A. […]

In another data set the test system is THBS1. Kind of data set: Downregulation of gene expression and/or activity, 1% naringenin: THBS1. Conditions: negative = downregulation.
Description: as §1

For a further data set, the system named is NR4A2. Kind of data set: Downregulation of gene expression and/or activity, 1% naringenin: NR4A2.
Description: as §1
Nuclear receptor subfamily 4 group A member 2 (NR4A2) plays a role in the inflammatory response. In certain embodiments, downregulation of NR4A2 results in reduction in inflammation. In certain embodiments, the administration of composition comprising naringenin results in at least about 5 to about 15-fold downregulation of expression and/or activity of NR4A2. In certain embodiments, the administration of composition comprising naringenin results in at least about ten (10) fold downregulation of expression and/or activity of NR4A2.

A further data set relates to PTGS2. The data set is described as follows: Downregulation of gene expression and/or activity, 1% naringenin: PTGS2.
Description: as §1
Prostaglandin-endoperoxide synthase 2 (PTGS2) plays a role in the production of signaling molecules that are involved in the inflammatory response. For example, PTGS2 is involved in the conversion of arachidonic acid to prostaglandin H2, an important precursor of prostacyclin, which is expressed in inflammation. In certain embodiments, downregulation of PTGS2 leads to reduction in production of signaling molecules leading to inflammation. Thus, the downregulation of PTGS2 leads to reduced inflammation. In certain embodiments, the administration of composition comprising naringenin results in at least about 2 to about 10-fold downregulation of expression and/or activity of PTGS2. […]

In the next data set the test system is IL-6. The data set is described as follows: IL-6 concentration in stimulated (stressed) normal human epidermal keratinocytes (ELISA). The data set is classed as cell-based. The settings on record: for IL-6 concentration: LPS + Poly:IC stressed NHEK, stimulated control 1124.6. An excerpt:
Normal Human Epidermal Keratinocytes (NHEK) were stressed with a cocktail of lipopolysaccharide (LPS) and Polyinosinic-polycytidylic acid sodium salt (Poly:IC), external aggressors capable of inducing an inflammatory response. Stressed cells were subsequently treated with test articles and reduction in inflammatory markers was measuring by ELISA. Tables 19 and 20, provided below, discloses data for TNFα and IL-6 concentrations, respectively, in stressed normal human epidermal keratinocytes.

Regarding `O=C1C[C@@H](c2ccc(O)cc2)Oc2cc(O)cc(O)c21` [naringenin, (2S)-5,7-Dihydroxy-2-(4-hydroxyphenyl)-2,3-dihydro-4H-1-benzopyran-4-one], the “fold downregulation in expression and/or activity of CSF2” value with CSF2 is approximately 18 fold. In addition, the “Fold-increase in expression and/or activity of HPGD” value with HPGD is reported as approximately 10 fold. Also, in the data set on superoxide dismutase, the Superoxide dismutase result is reported as “increase”. Moreover, the “Fold-increase in expression and/or activity of IL37” value with IL37 was 11 fold. The “Fold-increase in expression and/or activity of KRT1” value in the data set on KRT1 is approximately 7 fold. Besides, in the data set with LCE5A, the “Fold-increase in expression and/or activity of LCE5A” value is reported as approximately 33 fold. The “Fold-increase (downregulation table) THBS1” value with THBS1 is on record as −6 fold. Moreover, in the data set on NR4A2, the “fold downregulation in expression and/or activity of NR4A2” value is on record as approximately 9 fold. Further, in the data set with NR4A2 (negative = downregulation), the “Fold-increase (downregulation table) NR4A2” value is recorded as −9 fold. Further, the “fold downregulation in expression and/or activity of PTGS2” value in the data set on PTGS2 is approximately 6 fold. For the same molecule, the “Fold-increase (downregulation table) PTGS2” value with PTGS2 (negative = downregulation) was −6 fold. Also, the IL-6 concentration with IL-6 (0.0001% naringenin, p-value 0.0001) turned out to be 395.8 pg/mL; in the data set on IL-6 (0.0045% naringenin, p-value 0.0029) it was 42.0 pg/mL; with IL-6 (0.007% naringenin, p-value 0.0030), 50.0 pg/mL; in the data set with IL-6 (0.01% naringenin, p-value 0.0035), 76.6 pg/mL. Besides, the inhibition at 0.0001 % in the data set on IL-6 (Homo sapiens, NHEK, 0.0001% naringenin, vs stimulated control, p-value 0.0001, read-out: IL-6 % Reduction vs Treated) was 64.8%. In addition, the inhibition at 0.0045 % in the data set on IL-6 (Homo sapiens, NHEK, 0.0045% naringenin, vs stimulated control, p-value 0.0029, read-out: IL-6 % Reduction vs Treated) was 96.3%. Also, the inhibition at 0.007 % with IL-6 (Homo sapiens, NHEK, 0.007% naringenin, vs stimulated control, p-value 0.0030, read-out: IL-6 % Reduction vs Treated) was determined as 95.6%. The inhibition at 0.01 % with IL-6 (Homo sapiens, NHEK, 0.01% naringenin, vs stimulated control, p-value 0.0035, read-out: IL-6 % Reduction vs Treated) stood at 93.2%. For the same molecule, the “Reduction of IL-6 (in words)” value in the data set on IL-6 (stressed keratinocytes) was “to non-stressed levels”.
